Results on four compounds are retold here after patent publication US9757372B2, “Toll-like receptor 4 antagonists and use in autoimmune liver diseases” (TAIWANJ PHARMACEUTICALS CO., LTD., priority 2015, dated 2017).

The structures appear in SMILES notation.

Assay [1] addresses T1, TLR4 (Homo sapiens, UniProt O00206+Q9Y6Y9). As to conditions: Hutchinson et al., Eur J Neurosci. 28:20-29, 2008; cited from earlier work.
Target sequence in this assay (O00206 24-839, species assumed): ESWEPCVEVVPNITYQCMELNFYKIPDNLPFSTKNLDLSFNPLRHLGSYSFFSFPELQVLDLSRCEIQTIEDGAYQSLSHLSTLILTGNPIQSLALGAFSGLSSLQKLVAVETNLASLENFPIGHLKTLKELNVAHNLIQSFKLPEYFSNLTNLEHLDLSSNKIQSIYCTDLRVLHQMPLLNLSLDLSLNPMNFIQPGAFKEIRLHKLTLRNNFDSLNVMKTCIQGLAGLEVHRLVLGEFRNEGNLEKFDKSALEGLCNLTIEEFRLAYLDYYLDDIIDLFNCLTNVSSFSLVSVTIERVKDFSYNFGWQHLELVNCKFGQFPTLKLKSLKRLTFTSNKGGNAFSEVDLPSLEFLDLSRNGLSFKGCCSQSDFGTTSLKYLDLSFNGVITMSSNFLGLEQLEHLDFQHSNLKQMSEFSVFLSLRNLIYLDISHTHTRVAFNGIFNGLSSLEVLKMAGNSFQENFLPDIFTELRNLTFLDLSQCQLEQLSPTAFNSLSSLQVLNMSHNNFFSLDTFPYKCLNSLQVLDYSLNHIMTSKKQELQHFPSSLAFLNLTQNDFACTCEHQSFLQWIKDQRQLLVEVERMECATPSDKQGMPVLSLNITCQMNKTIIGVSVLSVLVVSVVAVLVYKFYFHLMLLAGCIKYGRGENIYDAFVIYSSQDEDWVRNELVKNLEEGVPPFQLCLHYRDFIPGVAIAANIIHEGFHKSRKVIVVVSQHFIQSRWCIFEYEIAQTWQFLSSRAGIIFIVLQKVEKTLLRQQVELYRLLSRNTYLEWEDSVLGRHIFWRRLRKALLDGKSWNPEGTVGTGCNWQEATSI
Target sequence in this assay (Q9Y6Y9 17-160 limits assumed, species assumed): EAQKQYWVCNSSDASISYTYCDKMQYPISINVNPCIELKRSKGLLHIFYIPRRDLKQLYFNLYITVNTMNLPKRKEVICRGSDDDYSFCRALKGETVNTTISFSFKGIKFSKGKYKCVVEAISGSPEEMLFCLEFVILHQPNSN
In the next assay the test system is Con A-induced hepatitis. The assay is described as follows: Concanavalin A hepatitis in mouse (murine model of AIH). Type of assay: in vivo.
The subject of assay [2] is liver NK cells, NKT cells and mononuclear cells. The assay is described as follows: Murine model of primary biliary cirrhosis (2-OA-BSA and α-GalCer immunized C57BL/6 mice). Type of assay: in vivo, mouse. As to conditions: 50 mg/kg bid oral; for effect on elevated liver NK cells: week 4 through week 10 (FIG. 3); for effect on elevated liver NKT cells: week 4 through week 10 (FIG. 4); for effect on elevated liver mononuclear cells: week 4 through week 10 (not shown). From the text:
C57BL/6 mice of 8-10 weeks old were immunized with 2-OA-BSA and α-GalCer at week 0, followed by booster injections at 2, 4, and 8. […] Each value represents individual animals. Some animals were lost due to lunging.

Assay [3] concerns the target T1, TLR4. The assay is described as follows: Inhibition of TLR4 activation: NF-κB-inducible SEAP reporter, antagonist assay with LPS. Format: cell-based. On the set-up: expressed in transfected cells; host or cells: HEK293. How it is done:
The secreted alkaline phosphatase reporter is under the control of a promoter inducible by the transcription factor NF-κB. TLR stimulation in the screening is tested by assessing NF-κB activation in the HEK293 cells expressing a given TLR. This reporter gene allows the monitoring of signaling through the TLR, based on the activation of NF-κB. In a 96-well plate (200μL total volume) containing the appropriate cells (25,000-50,000 cells/well), we add 20μL of your sample or the positive control ligands to the wells. For the antagonist assay, the samples are incubated with the cells for 30 minutes prior to adding the appropriate stimulating ligand. The media we add to the wells is designed for the detection of NF-κB induced SEAP expression. After a 16-20 hr incubation we read the OD at 650 nm on a Beckman Coulter AD 340C Absorbance Detector.
Target sequence in this assay (O00206 24-839): as the sequence (O00206 24-839, species assumed) above
Target sequence in this assay (Q9Y6Y9 17-160 limits assumed): as the sequence (Q9Y6Y9 17-160 limits assumed, species assumed) above

The mark [4] stands for this setting: 20 mg/kg, 9 hours post Con A challenge, P<0.05 vs vehicle.
Where [5] appears, read: 50 mg/kg PO, result in words (FIG. 2).

Turning to `O=C1CC[C@@]2(O)[C@H]3Cc4ccc(O)c5c4[C@@]2(CCN3CC2CC2)[C@H]1O5` [Compound A, naltrexone], on TLR4 [1], the “reported TLR4 antagonist” value was “TLR4 antagonist”. In the assay on Con A-induced hepatitis (setting [4]), the “reduction of IL-5 in the liver” value was found to be 21% and the “reduction of IL-6 in the liver” value was 32%. Besides, in assay [2], the “effect on elevated liver NK cells” value is “suppressed”, the “effect on elevated liver NKT cells” value is listed as “suppressed” and the “effect on elevated liver mononuclear cells” value is “suppressed”.

Regarding `C=C1CC[C@@]2(O)[C@H]3Cc4ccc(O)c5c4[C@@]2(CCN3CC2CC2)[C@H]1O5` [Compound B, nalmefene], the “% of Inhibition of NF-κB” value on TLR4 [3] (HEK293 cells expressing TLR4, LPS 50 pg/mL, compound 10 μM) is 21%. At TLR4 [3] (at various concentrations), the “inhibition of LPS-induced TLR4 activation” value is reported as “weak inhibition”. In the assay on Con A-induced hepatitis (setting [5]), the “inhibition of Con A-induced elevation of ALT” value is “significant (P<0.05) inhibition” and the “inhibition of Con A-induced elevation of AST” value is on record as “significant (P<0.05) inhibition”. Moreover, the “reduction of IL-5 in the serum” value in the assay on Con A-induced hepatitis (50 mg/kg, 6 hours post Con A challenge) was 64%. The “reduction of IL-5 in the liver” value in the assay on Con A-induced hepatitis (50 mg/kg, 24 hours post Con A challenge) is 16%. Moreover, in assay [2], the “effect on elevated liver NK cells” value is “suppressed”, the “effect on elevated liver NKT cells” value is “suppressed” and the “effect on elevated liver mononuclear cells” value was “suppressed”.

Take `COc1ccc2c(c1)[C@@]13CCCC[C@H]1[C@@H](C2)NCC3` [Compound C, 3-methoxymorphinan]: in assay [2], the “effect on elevated liver NK cells” value is reported as “suppressed”, the “effect on elevated liver NKT cells” value is recorded as “suppressed” and the “effect on elevated liver mononuclear cells” value was “suppressed”.

As for `Oc1ccc2c(c1)[C@@]13CCCC[C@H]1[C@@H](C2)NCC3` [Compound D, 3-hydroxymorphinan], in assay [2], the “effect on elevated liver NK cells” value is “suppressed”, the “effect on elevated liver NKT cells” value was “suppressed” and the “effect on elevated liver mononuclear cells” value was “suppressed”.
